Patent US20240317727A1 (Duke University, priority 2018, published 2024)

Columns and labels:
[1] = test system: COLO 205; assay: NCI60 cell growth and viability: COLO 205; format: cell-based; settings: COLO 205, Colon Cancer, two days
[2] = test system: EKVX; assay: NCI60 cell growth and viability: EKVX; format: cell-based; settings: Non-Small Cell Lung Cancer, two days
[3] = test system: ACHN; assay: NCI60 cell growth and viability: ACHN; format: cell-based; settings: Renal Cancer, two days
[4] = test system: PC-3; assay: NCI60 cell growth and viability: PC-3; format: cell-based; settings: PC-3, Prostate Cancer, two days
[5] = test system: HSF1 regulated transcripts; assay: HSF1 regulated transcripts in C4-2 cells; format: cell-based, human; settings: FIG. 4C
[6] = test system: HS 578T; assay: NCI60 cell growth and viability: HS 578T; format: cell-based; settings: Breast Cancer, two days
[7] = test system: SNB-75; assay: NCI60 cell growth and viability: SNB-75; format: cell-based; settings: SNB-75, CNS Cancer, two days
[8] = test system: A498; assay: NCI60 cell growth and viability: A498; format: cell-based; settings: A498, Renal Cancer, two days
[9] = test system: NCI-H23; format: cell-based; settings: NCI-H23, Non-Small Cell Lung Cancer, two days
[10] = test system: HCT-116; assay: NCI60 cell growth and viability: HCT-116; format: cell-based; settings: HCT-116, Colon Cancer, two days
[11] = test system: NCI-H226; format: cell-based; settings: NCI-H226, Non-Small Cell Lung Cancer, two days
[12] = test system: C4-2 malignant prostate cancer cells vs BPH-1 non-tumorigenic prostate cells; assay: AlamarBlue cell viability, C4-2 vs BPH-1; format: cell-based, human; settings: 96 hours, AlamarBlue assay, FIG. 6A
Protocol: The cells were treated for 96 hours with the indicated concentrations of the compounds of the disclosure and cell viability was measured with the AlamarBlue assay. FIG. 6B illustrates the results of Compound 0017 used in a 7-week Maximal Tolerated Dose (MTD) study conducted in mice (3 mice identified as 118, 119 and 120). […] After sacrificing the mice on the last day of the administration, mouse liver and heart tissue was isolated, messenger RNA extracted and the transcript abundance of the HSF1 target gene, Hsp70, was evaluated by qRT-PCR relative to the internal RNA control, GAPDH. The results of the vehicle-treated versus Compound 0017-treated experiments were compared.
Based on the chemical structure of Compound 0017 and its activity, and of other HSF1-interacting chemicals identified in the screen, additional derivatives were designed, synthesized and evaluated for binding to HSF1 and preferential inhibition of metastatic prostate cancer cells (C4-2) versus benign prostate cells (BPH-1).

[13] = test system: NCI-H522; format: cell-based; settings: NCI-H522, Non-Small Cell Lung Cancer, two days
[14] = test system: OVCAR-4; assay: NCI60 cell growth and viability: OVCAR-4; format: cell-based; settings: OVCAR-4, Ovarian Cancer, two days
[15] = test system: T-47D; assay: NCI60 cell growth and viability: T-47D; format: cell-based; settings: Breast Cancer, two days
[16] = test system: HOP-62; assay: NCI60 cell growth and viability: HOP-62; format: cell-based; settings: HOP-62, Non-Small Cell Lung Cancer, two days
[17] = test system: NCI/ADR-RES; assay: NCI60 cell growth and viability: NCI/ADR-RES; format: cell-based; settings: Ovarian Cancer, two days
[18] = test system: KM12; assay: NCI60 cell growth and viability: KM12; format: cell-based; settings: KM12, Colon Cancer, two days
[19] = test system: HOP-92; assay: NCI60 cell growth and viability: HOP-92; format: cell-based; settings: HOP-92, Non-Small Cell Lung Cancer, two days
[20] = test system: C4/2 prostate cancer cells; assay: Mouse xenograft model of Prostate Cancer; format: in vivo; settings: nude mice, 25 mg/kg every other day intraperitoneal, vs vehicle
Protocol: FIGS. 7A and 7B are graphs showing that the compounds of the disclosure inhibit tumor growth in a mouse xenograft model of Prostate Cancer. Nude mice were inoculated on their flank with one million C4/2 prostate cancer cells (n=20 mice). One week after inoculation, tumors were apparent and mice were then treated with either vehicle (n=10 mice) or Compound 0017 (n=10 mice) at 25 mg/kg every other day by intraperitoneal administration. On the indicated days after the start of vehicle or Compound 0017 administration, tumors were measured in situ with a caliper and tumor volume calculated in cubic millimeters (FIG. 7A). Simultaneously, mouse weight was determined (FIG. 7B). Error bars represent standard error of the mean. **=P<0.01 in accordance with one embodiment of the present disclosure.

[21] = Homo sapiens, 48 h, read-out: log10 [GI50 (M)] (converted)
[22] = Homo sapiens, 48 h, read-out: log10 [LC50 (M)] (converted)

O=C(Nc1ccc(F)cc1)Nc1ccc(Cl)c([N+](=O)[O-])c1 [Compound 0017, 1-(4-chloro-3-nitrophenyl)-3-(4-fluorophenyl)urea]
log10 [TGI (M)] [1]: −5.20 log10 M | GI50 [1, 21]: 2.45e-06 M | CC50 [1, 22]: 3.47e-05 M | GI50 [2, 21]: 2.82e-06 M | CC50 [2, 22]: 6.17e-05 M | log10 [TGI (M)] [2]: −4.96 log10 M | GI50 [3, 21]: 2.95e-06 M | CC50 [3, 22]: 6.03e-05 M | log10 [TGI (M)] [3]: −4.96 log10 M | GI50 [4, 21]: 1.58e-06 M | CC50 [4, 22]: 4.37e-05 M | log10 [TGI (M)] [4]: −4.95 log10 M | HSF1 negatively regulated transcripts [5]: de-repressed | expression of HSF1 positively regulated transcripts [5]: dose-dependently repressed | log10 [TGI (M)] [6]: −4.62 log10 M | GI50 [6, 21]: 3.98e-06 M | CC50 [6, 22]: ≥ 0.0001 M | GI50 [7, 21]: 5.89e-06 M | CC50 [7, 22]: ≥ 0.0001 M | log10 [TGI (M)] [7]: −4.00 log10 M | log10 [TGI (M)] [8]: −5.24 log10 M | GI50 [8, 21]: 1.82e-06 M | CC50 [8, 22]: 2.34e-05 M | GI50 [9, 21]: 2.63e-06 M | CC50 [9, 22]: 4.57e-05 M | log10 [TGI (M)] [9]: −4.97 log10 M | log10 [TGI (M)] [10]: −4.93 log10 M | GI50 [10, 21]: 3.09e-06 M | CC50 [10, 22]: 3.47e-05 M | GI50 [11, 21]: 2.29e-06 M | LC50 [11, 22]: 3.63e-05 M | log10 [TGI (M)] [11]: −5.03 log10 M | viability of C4-2 compared to BPH-1 [12]: preferentially inhibit the viability | GI50 [13, 21]: 2.45e-06 M | CC50 [13, 22]: 4.68e-05 M | log10 [TGI (M)] [13]: −4.97 log10 M | GI50 [14, 21]: 2.75e-06 M | CC50 [14, 22]: 8.71e-05 M | log10 [TGI (M)] [14]: −4.85 log10 M | log10 [TGI (M)] [15]: −5.01 log10 M | GI50 ([15]; Homo sapiens, T47D, 48 h, read-out: log10 [GI50 (M)] (converted)): 2.19e-06 M | CC50 ([15]; Homo sapiens, T47D, 48 h, read-out: log10 [LC50 (M)] (converted)): 5.13e-05 M | log10 [TGI (M)] [16]: −4.80 log10 M | GI50 [16, 21]: 3.8e-06 M | CC50 [16, 22]: 5.62e-05 M | GI50 [17, 21]: 2.57e-06 M | CC50 [17, 22]: ≥ 0.0001 M | log10 [TGI (M)] [17]: −4.99 log10 M | GI50 [18, 21]: 3.31e-06 M | CC50 [18, 22]: 9.12e-05 M | log10 [TGI (M)] [18]: −4.86 log10 M | log10 [TGI (M)] [19]: −5.21 log10 M | GI50 [19, 21]: 2.04e-06 M | CC50 [19, 22]: 2.69e-05 M | mouse weight ([20]; FIG. 7B): without impacting the weight | tumor growth (tumor volume) ([20]; C4-2 derived tumors, 21-day, FIG. 7A): inhibits the growth
